Test results from ChEMBL document CHEMBL4251615, “Discovery of anilino-furo[2,3-d]pyrimidine derivatives as dual inhibitors of EGFR/HER2 tyrosine kinase and their anticancer activity” (Eur J Med Chem, 2018).

What follows are compounds tested on NCI-H522 (assay: Growth inhibition of human NCI-H522 cells assessed as cell growth at 10 uM incubated for 48 hrs by sulforhodamine B assay relative to control). Settings: NCI-H522, 48 h, read-out: Activity.
Format: functional

How did the growth at 10 µM turn out when `CCOC(=O)c1c(C)oc2ncnc(Nc3ccc(OCc4ccc(Cl)cc4)cc3)c12` was run?
The growth at 10 µM was 84%.

What follows are compounds tested on 786-0 (assay: Growth inhibition of human 786-0 cells assessed as cell growth at 10 uM incubated for 48 hrs by sulforhodamine B assay relative to control). Settings: 786-0, 48 h, read-out: Activity.
Format: functional

Which growth at 10 µM does the source give for `CCOC(=O)c1c(C)oc2ncnc(Nc3ccc(OCc4ccc(Cl)cc4)cc3)c12` here?
Its growth at 10 µM is 98%.

The compounds below were run on HT-29 (assay: Growth inhibition of human HT-29 cells assessed as cell growth at 10 uM incubated for 48 hrs by sulforhodamine B assay relative to control). Settings: HT-29, 48 h, read-out: Activity.
Format: functional

`CCOC(=O)c1c(C)oc2ncnc(Nc3ccc(OCc4ccc(Cl)cc4)cc3)c12` was tested. Which growth at 10 µM did it give?
Its growth at 10 µM is 94.4%.

Each compound was assayed on BT-549 (assay: Growth inhibition of human BT549 cells assessed as cell growth at 10 uM incubated for 48 hrs by sulforhodamine B assay relative to control). Settings: BT-549, 48 h, read-out: Activity.
Format: functional

`CCOC(=O)c1c(C)oc2ncnc(Nc3ccc(OCc4ccc(Cl)cc4)cc3)c12` was tested. Which growth at 10 µM did it give?
Its growth at 10 µM is 96.1%.

These compounds were tested on OVCAR-4 (assay: Growth inhibition of human OVCAR4 cells assessed as cell growth at 10 uM incubated for 48 hrs by sulforhodamine B assay relative to control). Settings: OVCAR-4, 48 h, read-out: Activity.
Format: functional

How did the growth at 10 µM turn out when `CCOC(=O)c1c(C)oc2ncnc(Nc3ccc(OCc4ccc(Cl)cc4)cc3)c12` was run?
Its growth at 10 µM is 104%.

The compounds below were run on SK-MEL-2 (assay: Growth inhibition of human SK-MEL-2 cells assessed as cell growth at 10 uM incubated for 48 hrs by sulforhodamine B assay relative to control). Settings: SK-MEL-2, 48 h, read-out: Activity.
Format: functional

Which growth at 10 µM does the source give for `CCOC(=O)c1c(C)oc2ncnc(Nc3ccc(OCc4ccc(Cl)cc4)cc3)c12` here?
Its growth at 10 µM is 105%.

Each compound was assayed on TK-10 (assay: Growth inhibition of human TK10 cells assessed as cell growth at 10 uM incubated for 48 hrs by sulforhodamine B assay relative to control). Settings: TK-10, 48 h, read-out: Activity.
Format: functional

With `CCOC(=O)c1c(C)oc2ncnc(Nc3ccc(OCc4ccc(Cl)cc4)cc3)c12` as the compound, how does the growth at 10 µM read?
Its growth at 10 µM is 87.4%.

Each compound was assayed on SF-268 (assay: Growth inhibition of human SF268 cells assessed as cell growth at 10 uM incubated for 48 hrs by sulforhodamine B assay relative to control). Settings: SF-268, 48 h, read-out: Activity.
Format: functional

Which growth at 10 µM does the source give for `CCOC(=O)c1c(C)oc2ncnc(Nc3ccc(OCc4ccc(Cl)cc4)cc3)c12` here?
The growth at 10 µM was 109%.

The compounds below were run on A549 (assay: Growth inhibition of human A549/ATCC cells assessed as cell growth at 10 uM incubated for 48 hrs by sulforhodamine B assay relative to control). Settings: A549, 48 h, read-out: Activity.
Format: functional

`CCOC(=O)c1c(C)oc2ncnc(Nc3ccc(OCc4ccc(Cl)cc4)cc3)c12` was tested. Which growth at 10 µM did it give?
Its growth at 10 µM is 86.5%.

The compounds below were run on NCI-H23 (assay: Growth inhibition of human NCI-H23 cells assessed as cell growth at 10 uM incubated for 48 hrs by sulforhodamine B assay relative to control). Settings: NCI-H23, 48 h, read-out: Activity.
Format: functional

`CCOC(=O)c1c(C)oc2ncnc(Nc3ccc(OCc4ccc(Cl)cc4)cc3)c12` was tested. Which growth at 10 µM did it give?
Its growth at 10 µM is 95.4%.

Each compound was assayed on MDA-MB-468 (assay: Growth inhibition of human MDA-MB-468 cells assessed as cell growth at 10 uM incubated for 48 hrs by sulforhodamine B assay relative to control). Settings: MDA-MB-468, 48 h, read-out: Activity.
Format: functional

With `CCOC(=O)c1c(C)oc2ncnc(Nc3ccc(OCc4ccc(Cl)cc4)cc3)c12` as the compound, how does the growth at 10 µM read?
The growth at 10 µM was 89.8%.

Each compound was assayed on MDA-MB-435 (assay: Growth inhibition of human MDA-MB-435 cells assessed as cell growth at 10 uM incubated for 48 hrs by sulforhodamine B assay relative to control). Settings: MDA-MB-435, 48 h, read-out: Activity.
Format: functional

`CCOC(=O)c1c(C)oc2ncnc(Nc3ccc(OCc4ccc(Cl)cc4)cc3)c12` was tested. Which growth at 10 µM did it give?
Its growth at 10 µM is 104%.

The compounds below were run on OVCAR-3 (assay: Growth inhibition of human OVCAR3 cells assessed as cell growth at 10 uM incubated for 48 hrs by sulforhodamine B assay relative to control). Settings: OVCAR-3, 48 h, read-out: Activity.
Format: functional

Which growth at 10 µM does the source give for `CCOC(=O)c1c(C)oc2ncnc(Nc3ccc(OCc4ccc(Cl)cc4)cc3)c12` here?
Its growth at 10 µM is 117%.

The compounds below were run on RXF 393 (assay: Growth inhibition of human RXF393 cells assessed as cell growth at 10 uM incubated for 48 hrs by sulforhodamine B assay relative to control). Settings: RXF 393, 48 h, read-out: Activity.
Format: functional

For `CCOC(=O)c1c(C)oc2ncnc(Nc3ccc(OCc4ccc(Cl)cc4)cc3)c12`, which growth at 10 µM is on record?
Its growth at 10 µM is 85.9%.

These compounds were tested on SW-620 (assay: Growth inhibition of human SW620 cells assessed as cell growth at 10 uM incubated for 48 hrs by sulforhodamine B assay relative to control). Settings: SW-620, 48 h, read-out: Activity.
Format: functional

For `CCOC(=O)c1c(C)oc2ncnc(Nc3ccc(OCc4ccc(Cl)cc4)cc3)c12`, which growth at 10 µM is on record?
Its growth at 10 µM is 106%.

What follows are compounds tested on Hs-578T (assay: Growth inhibition of human Hs 578T cells assessed as cell growth at 10 uM incubated for 48 hrs by sulforhodamine B assay relative to control). Settings: read-out: Activity.
Format: functional

How did the growth at 10 µM turn out when `CCOC(=O)c1c(C)oc2ncnc(Nc3ccc(OCc4ccc(Cl)cc4)cc3)c12` was run?
Its growth at 10 µM is 111%.

What follows are compounds tested on HOP-92 (assay: Growth inhibition of human HOP92 cells assessed as cell growth at 10 uM incubated for 48 hrs by sulforhodamine B assay relative to control). Settings: HOP-92, 48 h, read-out: Activity.
Format: functional

`CCOC(=O)c1c(C)oc2ncnc(Nc3ccc(OCc4ccc(Cl)cc4)cc3)c12` was tested. Which growth at 10 µM did it give?
The growth at 10 µM was 107%.

Each compound was assayed on ACHN (assay: Growth inhibition of human ACHN cells assessed as cell growth at 10 uM incubated for 48 hrs by sulforhodamine B assay relative to control). Settings: read-out: Activity.
Format: functional

For `CCOC(=O)c1c(C)oc2ncnc(Nc3ccc(OCc4ccc(Cl)cc4)cc3)c12`, which growth at 10 µM is on record?
Its growth at 10 µM is 101%.

What follows are compounds tested on EKVX (assay: Growth inhibition of human EKVX cells assessed as cell growth at 10 uM incubated for 48 hrs by sulforhodamine B assay relative to control). Settings: read-out: Activity.
Format: functional

For `CCOC(=O)c1c(C)oc2ncnc(Nc3ccc(OCc4ccc(Cl)cc4)cc3)c12`, which growth at 10 µM is on record?
Its growth at 10 µM is 102%.

The compounds below were run on Malme-3M (assay: Growth inhibition of human MALME-3M cells assessed as cell growth at 10 uM incubated for 48 hrs by sulforhodamine B assay relative to control). Settings: read-out: Activity.
Format: functional

With `CCOC(=O)c1c(C)oc2ncnc(Nc3ccc(OCc4ccc(Cl)cc4)cc3)c12` as the compound, how does the growth at 10 µM read?
Its growth at 10 µM is 123%.

These compounds were tested on NCI-H322M (assay: Growth inhibition of human NCI-H322M cells assessed as cell growth at 10 uM incubated for 48 hrs by sulforhodamine B assay relative to control). Settings: read-out: Activity.
Format: functional

How did the growth at 10 µM turn out when `CCOC(=O)c1c(C)oc2ncnc(Nc3ccc(OCc4ccc(Cl)cc4)cc3)c12` was run?
Its growth at 10 µM is 107%.

Each compound was assayed on SNB-19 (assay: Growth inhibition of human SNB19 cells assessed as cell growth at 10 uM incubated for 48 hrs by sulforhodamine B assay relative to control). Settings: SNB-19, 48 h, read-out: Activity.
Format: functional

Which growth at 10 µM does the source give for `CCOC(=O)c1c(C)oc2ncnc(Nc3ccc(OCc4ccc(Cl)cc4)cc3)c12` here?
Its growth at 10 µM is 111%.

Each compound was assayed on U-251 (assay: Growth inhibition of human U251 cells assessed as cell growth at 10 uM incubated for 48 hrs by sulforhodamine B assay relative to control). Settings: U-251, 48 h, read-out: Activity.
Format: functional

`CCOC(=O)c1c(C)oc2ncnc(Nc3ccc(OCc4ccc(Cl)cc4)cc3)c12` was tested. Which growth at 10 µM did it give?
The growth at 10 µM was 107%.

Each compound was assayed on SF-295 (assay: Growth inhibition of human SF295 cells assessed as cell growth at 10 uM incubated for 48 hrs by sulforhodamine B assay relative to control). Settings: SF-295, 48 h, read-out: Activity.
Format: functional

Which growth at 10 µM does the source give for `CCOC(=O)c1c(C)oc2ncnc(Nc3ccc(OCc4ccc(Cl)cc4)cc3)c12` here?
Its growth at 10 µM is 97.9%.

The compounds below were run on PC-3 (assay: Growth inhibition of human PC3 cells assessed as cell growth at 10 uM incubated for 48 hrs by sulforhodamine B assay relative to control). Settings: PC-3, 48 h, read-out: Activity.
Format: functional

`CCOC(=O)c1c(C)oc2ncnc(Nc3ccc(OCc4ccc(Cl)cc4)cc3)c12` was tested. Which growth at 10 µM did it give?
Its growth at 10 µM is 100%.

Each compound was assayed on HCC 2998 (assay: Growth inhibition of human HCC2998 cells assessed as cell growth at 10 uM incubated for 48 hrs by sulforhodamine B assay relative to control). Settings: HCC 2998, 48 h, read-out: Activity.
Format: functional

Which growth at 10 µM does the source give for `CCOC(=O)c1c(C)oc2ncnc(Nc3ccc(OCc4ccc(Cl)cc4)cc3)c12` here?
Its growth at 10 µM is 108%.

These compounds were tested on HCT-116 (assay: Growth inhibition of human HCT116 cells assessed as cell growth at 10 uM incubated for 48 hrs by sulforhodamine B assay relative to control). Settings: HCT-116, 48 h, read-out: Activity.
Format: functional

How did the growth at 10 µM turn out when `CCOC(=O)c1c(C)oc2ncnc(Nc3ccc(OCc4ccc(Cl)cc4)cc3)c12` was run?
Its growth at 10 µM is 98.7%.

Each compound was assayed on RPMI-8226 (assay: Growth inhibition of human RPMI8226 cells assessed as cell growth at 10 uM incubated for 48 hrs by sulforhodamine B assay relative to control). Settings: RPMI-8226, 48 h, read-out: Activity.
Format: functional

With `CCOC(=O)c1c(C)oc2ncnc(Nc3ccc(OCc4ccc(Cl)cc4)cc3)c12` as the compound, how does the growth at 10 µM read?
The growth at 10 µM was 111%.

These compounds were tested on MCF7 (assay: Growth inhibition of human MCF7 cells assessed as cell growth at 10 uM incubated for 48 hrs by sulforhodamine B assay relative to control). Settings: MCF7, 48 h, read-out: Activity.
Format: functional

Which growth at 10 µM does the source give for `CCOC(=O)c1c(C)oc2ncnc(Nc3ccc(OCc4ccc(Cl)cc4)cc3)c12` here?
Its growth at 10 µM is 102%.

What follows are compounds tested on MDA-MB-231 (assay: Growth inhibition of human MDA-MB-231 cells assessed as cell growth at 10 uM incubated for 48 hrs by sulforhodamine B assay relative to control). Settings: MDA-MB-231, 48 h, read-out: Activity.
Format: functional

`CCOC(=O)c1c(C)oc2ncnc(Nc3ccc(OCc4ccc(Cl)cc4)cc3)c12` was tested. Which growth at 10 µM did it give?
Its growth at 10 µM is 101%.

The compounds below were run on HL-60(TB) (assay: Growth inhibition of human HL-60(TB) cells assessed as cell growth at 10 uM incubated for 48 hrs by sulforhodamine B assay relative to control). Settings: HL-60, 48 h, read-out: Activity.
Format: functional

How did the growth at 10 µM turn out when `CCOC(=O)c1c(C)oc2ncnc(Nc3ccc(OCc4ccc(Cl)cc4)cc3)c12` was run?
The growth at 10 µM was 91.7%.

The compounds below were run on SN12C (assay: Growth inhibition of human SN12C cells assessed as cell growth at 10 uM incubated for 48 hrs by sulforhodamine B assay relative to control). Settings: read-out: Activity.
Format: functional

With `CCOC(=O)c1c(C)oc2ncnc(Nc3ccc(OCc4ccc(Cl)cc4)cc3)c12` as the compound, how does the growth at 10 µM read?
Its growth at 10 µM is 97.8%.

These compounds were tested on MOLT-4 (assay: Growth inhibition of human MOLT4 cells assessed as cell growth at 10 uM incubated for 48 hrs by sulforhodamine B assay relative to control). Settings: MOLT-4, 48 h, read-out: Activity.
Format: functional

For `CCOC(=O)c1c(C)oc2ncnc(Nc3ccc(OCc4ccc(Cl)cc4)cc3)c12`, which growth at 10 µM is on record?
Its growth at 10 µM is 109%.
